In patent publication US8435769B2, “Use of glyphosate to produce shikimic acid in microorganisms” (Monsanto Technology LLC, priority 2007, dated 2013):

Tests used:
Type in all cases: cell-based, Escherichia coli
[1] = system: E. coli K-12 host strain LBB427 (untransformed and transformed with plasmid pXT1457); test: Growth of shake-flask cultures after glyphosate addition; conditions: glyphosate 3.38 grams per liter (20 millimolar) added 2.5 hours after inoculation; Vogel-Bonner minimal culture medium; 37 degrees Celsius
Protocol: (§1) To confirm that the new plasmid was functioning as expected, the wild-type E. coli K-12 host strain LBB427 was transformed with the plasmid pXT1457. Techniques for transforming bacteria, including strains of E. coli, are known in the art (Sambrook and Russell, 2001; Ausubel et al., 2005). The shikimic acid and phenylalanine production levels of this strain were compared to that of the untransformed host strain LBB427. […] At 24 hours after inoculation, the cells were pelleted by centrifugation, and the culture supernatants were analyzed by a high-pressure liquid chromatography (HPLC) assay for shikimic acid and phenylalanine content. […]
(§2) The untransformed host strain LBB427 and the host strain LBB427 transformed with the plasmid pXT1457 were grown in 50 milliliters of the Vogel-Bonner minimal culture medium described in Example 1. […] At 24 hours after inoculation (i.e., 21.5 hours after N-(phosphonomethyl)glycine addition), the cells were pelleted by centrifugation, and the culture supernatants were analyzed for shikimic acid content using the HPLC assay described in Example 1. The culture supernatants of the host strain LBB427 transformed with the plasmid pXT1457 were also analyzed for phenylalanine content.

[2] = system: host strain LBB427 transformed with the plasmid pXT1483; test: HPLC assay of culture supernatant after glyphosate treatment, pXT1483 strain
[3] = system: host strain LBB427 transformed with the plasmid pXT1457; test: HPLC assay of culture supernatant after glyphosate treatment, pXT1457 strain
Protocol: To confirm that the new plasmid was functioning as expected, the wild-type E. coli K-12 host strain LBB427 was transformed with the plasmid pXT1457. Techniques for transforming bacteria, including strains of E. coli, are known in the art (Sambrook and Russell, 2001; Ausubel et al., 2005). The shikimic acid and phenylalanine production levels of this strain were compared to that of the untransformed host strain LBB427. The strains were cultured in 50 milliliters of Vogel-Bonner minimal culture medium (Vogel and Bonner, 1956), consisting of magnesium sulfate heptahydrate (MgSO4-7H2O) at 298 milligrams per liter, anhydrous dibasic potassium phosphate (K2HPO4) at 14.93 grams per liter, sodium ammonium phosphate tetrahydrate (NaNH4HPO4-4H2O) at 5.22 grams per liter, anhydrous citric acid (the free acid form) at 2.73 grams per liter, and glucose at 2.00 grams per liter. The pH of the culture medium was 7.0. For the strain LBB427 transformed with the plasmid pXT1457, ampicillin was included in the culture medium at 100 milligrams per liter. The cultures were grown in flasks, on an incubator shaker operating at 300 rpm and 37 degrees Celsius. At 24 hours after inoculation, the cells were pelleted by centrifugation, and the culture supernatants were analyzed by a high-pressure liquid chromatography (HPLC) assay for shikimic acid and phenylalanine content. To the samples to be assayed, phosphoric acid was added to a final concentration of 6 millimolar. […]
as §2, with “content. […]” for “content.”

[4] = system: untransformed host strain LBB427; test: HPLC assay of culture supernatant after glyphosate treatment, untransformed strain
Protocol: as §1
[…] At 24 hours after inoculation (i.e., 21.5 hours after N-(phosphonomethyl)glycine addition), the cells were pelleted by centrifugation, and the culture supernatants were analyzed for shikimic acid content using the HPLC assay described in Example 1. The culture supernatants of the host strain LBB427 transformed with the plasmid pXT1457 were also analyzed for phenylalanine content. […]

[5] = system: host strain LBB427 transformed with the plasmid pXT1483; test: High-density phosphate-limited fermentation culture with glyphosate addition; conditions: optical density of 40; glyphosate 20 millimolar; twelve hours after addition; sample at pH 1.0, 60 degrees Celsius, 15 minutes
Protocol: The host strain LBB427 transformed with the plasmid pXT1483 can be grown to high optical densities in a phosphate-limited fermentation culture. Fermentations are conducted in a chemically-defined minimal medium containing 5.9 grams of anhydrous ammonium sulfate ((NH4)2SO4), 1.8 grams of anhydrous dibasic potassium phosphate (K2HPO4), 1.0 grams of monobasic sodium phosphate monohydrate (NaH2PO4—H2O), 550 milligrams of magnesium sulfate heptahydrate (MgSO4-7H2O), 27 milligrams of ferric chloride hexahydrate (FeCl3-6H2O), 0.5 milligrams of zinc sulfate heptahydrate (ZnSO4-7H2O), 0.9 milligrams of cobalt chloride hexahydrate (CoCl2-6H2O), 0.9 milligrams of sodium molybdate dihydrate (Na2MoO4-2H2O), 1.1 milligrams of cupric sulfate pentahydrate (CuSO4-5H2O), 0.3 milligrams of boric acid (H3BO3), and 0.7 milligrams of manganese sulfate monohydrate (MnSO4—H2O) per liter of water. The fermenter is maintained at 37 degrees Celsius. The pH is maintained at 7.0 by the controlled addition of concentrated (about 29%) ammonium hydroxide (NH4OH). […]
Twelve hours after N-(phosphonomethyl)glycine addition, samples of the fermentation cultures are taken for analysis of shikimic acid levels. […] The cells are pelleted by centrifugation, and the culture supernatants are analyzed for shikimic acid content using the HPLC assay described in Example 1.

[6] = glyphosate 20 millimolar and phosphate-limitation (PF culture medium), 24 hours after inoculation
[7] = glyphosate 20 millimolar, Vogel-Bonner minimal culture medium, 24 hours after inoculation (21.5 hours after addition)

O=C(O)CNCP(=O)(O)O [glyphosate, N-(phosphonomethyl)-glycine]
Growth of the cultures [1]: almost completely inhibited
shikimic acid in the culture supernatant [2, 6]: about 400 milligrams of shikimic acid per OD unit per liter
level of shikimic acid in the culture supernatant ([2]; glyphosate 20 millimolar and phosphate-limitation, culture sample with cells adjusted to pH 1.0, heated to 60 degrees Celsius for 15 minutes): about 600 milligrams per OD unit per liter
shikimic acid in the culture supernatant [3, 6]: about 250 milligrams of shikimic acid per OD unit per liter
shikimic acid in the culture supernatant [3, 7]: did not produce detectable levels of shikimic acid
phenylalanine in the culture supernatant ([3]; glyphosate 20 millimolar, Vogel-Bonner minimal culture medium, 24 hours after inoculation, about 400 without glyphosate): about 50 milligrams of phenylalanine per OD unit per liter
shikimic acid in the culture supernatant [4, 6]: about 200 milligrams of shikimic acid per OD unit per liter
shikimic acid in the culture supernatant [4, 7]: did not produce detectable levels of shikimic acid
shikimic acid in the culture supernatant [5]: about 24 grams of shikimic acid per liter
